Data set [1] is described as follows: physchem. The conditions noted are these: water, Compound Solubility in Water.
Data set [2] has as its target T1, glucocerebrosidase (Gcase) (Homo sapiens, UniProt P04062).
T1 construct: micellar solution containing 10 nM GCase and 100 nM saposin C
T1 sequence (P04062 40-536): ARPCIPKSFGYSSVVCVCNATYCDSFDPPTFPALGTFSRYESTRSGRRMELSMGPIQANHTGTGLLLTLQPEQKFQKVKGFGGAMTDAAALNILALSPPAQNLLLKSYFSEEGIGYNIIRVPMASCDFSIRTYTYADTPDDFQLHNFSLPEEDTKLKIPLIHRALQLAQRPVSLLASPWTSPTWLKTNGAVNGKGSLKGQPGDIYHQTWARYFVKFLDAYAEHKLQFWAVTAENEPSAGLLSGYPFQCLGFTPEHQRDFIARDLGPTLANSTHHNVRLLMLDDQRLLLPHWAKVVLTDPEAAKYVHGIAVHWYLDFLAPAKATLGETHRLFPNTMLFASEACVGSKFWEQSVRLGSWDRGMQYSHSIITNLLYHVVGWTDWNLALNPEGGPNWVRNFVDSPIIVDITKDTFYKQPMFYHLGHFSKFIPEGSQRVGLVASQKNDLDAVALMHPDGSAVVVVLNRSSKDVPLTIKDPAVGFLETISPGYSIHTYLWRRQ
The data set is described as follows: Glucocerebrosidase (Gcase) activation assay, 4-methylumbelliferyl-beta-D-glucopyranoside substrate, fluorescence readout. It is filed as biochemical. As to conditions: for activation at 0.1 µM / Percent Gcase Activation, 0.1 μM Test Compound: test compound at 0.1 μM; for activation at 0.1 µM: read-out: Percent Gcase Activation, 0.1 μM Test Compound; for activation at 1 µM / Percent Gcase Activation, 1 μM Test Compound: test compound at 1.0 μM; for activation at 1 µM: read-out: Percent Gcase Activation, 1 μM Test Compound. Put shortly: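 Fluorescence (ex 365 nm, em 440 nm) read after glycine pH 12.5 stop of a 15 min room-temperature reaction. GCase 10 nM plus saposin C 100 nM in PS/triton micelles, pH 4.7, preincubated 30 min with compound; substrate solution held 2 mM 4-MU-beta-glucoside. Screened at 1.0 and 0.1 μM; 8-point, 3-fold curves from 5 μM top.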

A short description of data set [3]: Compound solubility in water. The conditions noted are these: water, Compound Solubility in Water, in water.

In brackets after ≈: the same amount, converted by molar mass.

Regarding `CCCCCC(=O)N1C2CCC1CC(NC(=O)c1ccn3c(C)cc(C)nc13)C2` (stereo not shown) [III-127], the solubility in data set [1] amounted to 6.5 µg/mL (≈ 16.4 µM). Besides, in data set [2], the activation at 0.1 µM is under 10% and the activation at 1 µM was under 30%.
`Cc1cc(C)n2ccc(C(=O)NC3CC4CCC(C3)N4CC(F)(F)F)c2n1` (stereo not shown) [III-128] showed a solubility in data set [1] of 18.9 µg/mL (≈ 49.7 µM). Also, in data set [2], the activation at 0.1 µM was under 10% and the activation at 1 µM is under 30%.
In the case of `Cc1cc(C(F)(F)F)n2ccc(C(=O)Nc3ccc(-c4cocn4)cc3)c2n1` [III-254], in data set [2], the activation at 0.1 µM is under 10% and the activation at 1 µM was under 30%. Further, the solubility in data set [3] was found to be 0.6 µg/mL (≈ 1.55 µM).
`Cc1ccnc2c(C(=O)N[C@H]3CCCc4ccccc43)ccn12` [III-255]: in data set [2], the activation at 0.1 µM was over 20% and the activation at 1 µM was over 60%. In data set [3], this molecule displayed a solubility of 3.5 µg/mL (≈ 11.5 µM).
For `Cc1ccnc2c(C(=O)Nc3ccc(-c4ncco4)cc3)ccn12` [III-256], in that order: under 10%, over 60% and 4 µg/mL (≈ 12.6 µM).
With `Cc1ccnc2c(C(=O)NC3(C)CCOc4ccccc43)ccn12` (stereo not shown) [III-257], in data set [2], the activation at 0.1 µM lay in the range of 10 to 20% and the activation at 1 µM was over 60%. This molecule also displayed a solubility in data set [3] of 28.9 µg/mL (≈ 89.9 µM).
`Cc1ccnc2c(C(=O)NC3(C)CCOc4c(F)cccc43)ccn12` (stereo not shown) [III-258]: in data set [2], the activation at 0.1 µM was under 10% and the activation at 1 µM was over 60%. In data set [3], this molecule gave a solubility of 7.6 µg/mL (≈ 22.4 µM).
Regarding `Cc1ccnc2c(C(=O)NC(C)(C)c3ccccc3)ccn12` [III-259], in data set [2], the activation at 0.1 µM was under 10% and the activation at 1 µM lay in the range of 30 to 60%. This molecule returned a solubility in data set [3] of 16.7 µg/mL (≈ 56.9 µM).
Regarding `CCCCCO[C@H]1CC[C@H](NC(=O)c2ccn3c(C)ccnc23)CC1` [III-260], in data set [2], the activation at 0.1 µM lay in the range of 10 to 20% and the activation at 1 µM is over 60%. In data set [3], this molecule returned a solubility of 17.7 µg/mL (≈ 51.5 µM).
In the same order, the values of `Cc1ccnc2c(C(=O)N[C@H](C)c3ccc(F)cc3)ccn12` [III-261] are 10 to 20%, 30 to 60% and 12.7 µg/mL (≈ 42.7 µM).
Turning to `Cc1ccnc2c(C(=O)NC3(C)CCCc4ccccc43)ccn12` (stereo not shown) [III-262], in data set [2], the activation at 0.1 µM is over 20% and the activation at 1 µM is over 60%. This molecule also registered a solubility in data set [3] of 0.9 µg/mL (≈ 2.82 µM).
Regarding `[2H]C1(NC(=O)c2ccn3c(C)ccnc23)CCCc2ccccc21` (stereo not shown) [III-263], in data set [2], the activation at 0.1 µM is over 20% and the activation at 1 µM was over 60%. Moreover, the solubility in data set [3] came to 7.1 µg/mL (≈ 23.2 µM).
For `Cc1ccnc2c(C(=O)NC3(C)CCOc4ccc(F)cc43)ccn12` (stereo not shown) [III-264], in that order: 10 to 20%, over 60% and 12.5 µg/mL (≈ 36.8 µM).
`Cc1ccn2ccc(C(=O)Nc3ccc(-c4ncco4)cc3)c2n1` [III-265]: in data set [2], the activation at 0.1 µM was under 10% and the activation at 1 µM is under 30%. The solubility in data set [3] stood at 2 µg/mL (≈ 6.28 µM).
`COCc1cc(C2CC2)nc2c(C(=O)NC3(C)CCOc4cc(F)c(F)cc43)ccn12` (stereo not shown) [III-266]: in data set [2], the activation at 0.1 µM was 10 to 20% and the activation at 1 µM is over 60%. Moreover, the solubility in data set [3] was 0.9 µg/mL (≈ 2.11 µM).
`CCCc1cc(COC)n2ccc(C(=O)NC3(C)CCOc4cc(F)c(F)cc43)c2n1` (stereo not shown) [III-267]: in data set [2], the activation at 0.1 µM is under 10% and the activation at 1 µM is over 60%. Further, the solubility in data set [3] was determined as 0.4 µg/mL (≈ 0.931 µM).
For `CCCCO[C@H]1CC[C@H](NC(=O)c2ccn3c(COC)cc(C4CC4)nc23)CC1` [III-268], in data set [2], the activation at 0.1 µM is over 20% and the activation at 1 µM was over 60%. In addition, the concentration in solution in data set [3] (solubility) came to 2.1 µg/mL (≈ 5.26 µM).
`CCCCO[C@H]1CC[C@H](NC(=O)c2ccn3c(COC)cc(CCC)nc23)CC1` [III-269]: in data set [2], the activation at 0.1 µM fell in the range of 10 to 20% and the activation at 1 µM is over 60%. The molecule also returned a solubility in data set [3] of 0.8 µg/mL (≈ 1.99 µM).
In the case of `COCc1cc(C2CC2)n2ccc(C(=O)NC3(C)CCOc4cc(F)c(F)cc43)c2n1` (stereo not shown) [III-270], in data set [2], the activation at 0.1 µM is under 10% and the activation at 1 µM fell in the range of 30 to 60%. For the same molecule, the solubility in data set [3] turned out to be 3 µg/mL (≈ 7.02 µM).
`Cc1cc(C)n2c(F)cc(C(=O)Nc3ccc(-c4cocn4)cc3)c2n1` [III-271]: in data set [2], the activation at 0.1 µM is over 20% and the activation at 1 µM was over 60%. Moreover, the concentration in solution in data set [3] (solubility) came to 0.7 µg/mL (≈ 2 µM).
Regarding `C#CCCCOC1CCC(NC(=O)c2ccn3c(C)cc(C)nc23)C1` (stereo not shown) [III-272], in data set [2], the activation at 0.1 µM is under 10% and the activation at 1 µM was over 60%. This molecule displayed a solubility in data set [3] of 15.8 µg/mL (≈ 46.5 µM).
For `CCCCCOc1ccc(NC(=O)c2ccn3c(C)cc(C)nc23)cc1` [III-273], in data set [2], the “Percent Gcase Activation, 0.1 μM Test Compound” value is given as “*** (greater than 20% Gcase activation)” and the “Percent Gcase Activation, 1 μM Test Compound” value is on record as “+++ (Gcase activation greater than 60%)”. In data set [3], this molecule registered a solubility of 0.005 µg/mL (≈ 0.0142 µM).
For `Cc1cc(C)n2ccc(C(=O)Nc3ccc(-c4ncco4)cc3)c2n1` [III-274], in that order: “*** (greater than 20% Gcase activation)”, “+++ (Gcase activation greater than 60%)” and 0.06 µg/mL (≈ 0.181 µM).
On to `Cc1cc(C)n2ccc(C(=O)Nc3ccc(-c4cccs4)nc3)c2n1` [III-275], for which, in data set [2], the “Percent Gcase Activation, 0.1 μM Test Compound” value is on record as “*** (greater than 20% Gcase activation)” and the “Percent Gcase Activation, 1 μM Test Compound” value was “+++ (Gcase activation greater than 60%)”. For the same molecule, the solubility in data set [3] came out at 0.01 µg/mL (≈ 0.0287 µM).
Turning to `Cc1cc(C)n2ccc(C(=O)Nc3ccc(-c4ccco4)cc3)c2n1` [III-276], in data set [2], the “Percent Gcase Activation, 0.1 μM Test Compound” value is listed as “*** (greater than 20% Gcase activation)” and the “Percent Gcase Activation, 1 μM Test Compound” value was “+++ (Gcase activation greater than 60%)”. This molecule came in with a solubility in data set [3] of under 0.1 µg/mL.
Regarding `Cc1cc(C)n2ccc(C(=O)Nc3ccc(-c4ccncc4)cc3)c2n1` [III-277], in data set [2], the “Percent Gcase Activation, 0.1 μM Test Compound” value was “* (less than 10% Gcase activation)”. In addition, the solubility in data set [3] is 0.01 µg/mL (≈ 0.0292 µM).
Turning to `Cc1cc(C)n2ccc(C(=O)Nc3ccc(-c4cnn(C)c4)cc3)c2n1` [III-278], the “Percent Gcase Activation, 0.1 μM Test Compound” value in data set [2] is reported as “*** (greater than 20% Gcase activation)”. In data set [3], this molecule registered a solubility of 0.06 µg/mL (≈ 0.174 µM).
Turning to `Cc1cc(C)n2ccc(C(=O)Nc3ccc(Cl)c(COc4cccnc4)c3)c2n1` [III-279], in data set [2], the “Percent Gcase Activation, 0.1 μM Test Compound” value is listed as “*** (greater than 20% Gcase activation)” and the “Percent Gcase Activation, 1 μM Test Compound” value was “+++ (Gcase activation greater than 60%)”. In data set [3], the solubility was under 0.1 µg/mL.
For `Cc1cc(C)n2ccc(C(=O)Nc3ccc(-c4cnn(C)c4)nc3)c2n1` [III-283], in that order: “* (less than 10% Gcase activation)”, “+ (less than 30% Gcase activation)” and 0.2 µg/mL (≈ 0.577 µM).
In the case of `Cc1cc(C)n2ccc(C(=O)NC3CCc4nc(C)oc4C3)c2n1` (stereo not shown) [III-284], in data set [2], the activation at 0.1 µM was under 10% and the activation at 1 µM is under 30%. For the same molecule, in data set [3], the solubility is 21.1 µg/mL (≈ 65 µM).
For the molecule `COC1CC(NC(=O)c2ccn3c(C)cc(C)nc23)c2ccccc21` (stereo not shown) [III-285], in data set [2], the activation at 0.1 µM lay within 10 to 20% and the activation at 1 µM was over 60%. The molecule further gave a solubility in data set [3] of 23.8 µg/mL (≈ 71 µM).
Consider `Cc1cc(C)n2ccc(C(=O)N[C@H]3CC[C@H](OC4CC4)CC3)c2n1` [III-286], for which, in data set [2], the activation at 0.1 µM was in the range of 10 to 20% and the activation at 1 µM is over 60%. Also, the solubility in data set [3] turned out to be 8.8 µg/mL (≈ 26.9 µM).
For `CCC(C)(NC(=O)c1ccn2c(C)cc(C)nc12)c1ccccc1` (stereo not shown) [III-287], in that order: over 20%, over 60% and 1.6 µg/mL (≈ 4.98 µM).
As for `Cc1cc(C)n2ccc(C(=O)N[C@H]3CC[C@H](OCC(C)C)CC3)c2n1` [III-288], in data set [2], the activation at 0.1 µM was over 20% and the activation at 1 µM is over 60%. The concentration in solution in data set [3] (solubility) was 8.7 µg/mL (≈ 25.3 µM).
For `Cc1cc(C)n2ccc(C(=O)N[C@H]3CC[C@H](OC(C)(C)C)CC3)c2n1` [III-289], in data set [2], the activation at 0.1 µM was 10 to 20% and the activation at 1 µM is over 60%. In data set [3], this molecule returned a solubility of 17.1 µg/mL (≈ 49.8 µM).
Turning to `CCCO[C@H]1CC[C@H](NC(=O)c2ccn3c(C)cc(C)nc23)CC1` [III-290], in data set [2], the activation at 0.1 µM was under 10% and the activation at 1 µM is over 60%. The molecule also registered a solubility in data set [3] of 17.3 µg/mL (≈ 52.5 µM).

A word on the solubility: it is how much of the substance goes into solution per volume.

These data come from patent US11351173B2, “Substituted pyrrolo[1,2-a]pyrimidines and their use in the treatment of medical disorders” (Bial—R&D Investments, S.A., priority 2014, dated 2022).
